# Patent publication US20080280879A1, “SUBSTITUTED HETEROCYCLIC DERIVATIVES AND THEIR PHARMACEUTICAL USE AND COMPOSITIONS” (priority 2007, published 2008)
# Experiments:
# Type in all cases: cell-based, Staphylococcus aureus
# [1] = tested on: Staph aureus 1095 MRSA; test: MIC, microtiter broth dilution (CLSI M7-A7), Assay 1, Table 12 column A, no serum; conditions: Assay 1, no serum; for MIC: Staphylococcus aureus, MRSA
# Procedure, shortened: (§1)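 MIC values in μg/ml, taken as lowest drug concentration without macroscopically visible growth, geometric mean where run repeatedly. For serum-shifted testing, strains grew in Mueller-Hinton Broth plus 50% pooled inactivated human serum; otherwise CLSI M7-A7 microtiter dilution, M100-S16 interpretation.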
# [2] = tested on: Staph aureus 1146; test: MIC, microtiter broth dilution (CLSI M7-A7), Assay 1, Table 12 column B, no serum; conditions: for MIC: Staphylococcus aureus, 1146, Staph aureus 1146, Assay 1, no serum; for MIC, column B: Staph aureus 1146, Assay 1, no serum
# Procedure, shortened: as §1
# [3] = tested on: Staph aureus 2812; test: MIC, microtiter broth dilution (CLSI M7-A7), Assay 1, Table 12 column E, no serum; conditions: for MIC: Staphylococcus aureus, 2812, Staph aureus 2812, Assay 1, no serum; for MIC, column E: Staph aureus 2812, Assay 1, no serum
# Procedure, shortened: as §1
# [4] = tested on: Staph aureus 1146; test: MIC in Mueller-Hinton Broth with 50% pooled inactivated human serum, Assay 1, Table 12; conditions: for MIC: Staphylococcus aureus, 1146, Staph aureus 1146, Assay 1, 50% human serum, read-out: MIC, column C; for MIC, column C: Staph aureus 1146, Assay 1, 50% human serum
# Procedure, shortened: as §1
# [5] = tested on: Staph aureus 2811; test: MIC, microtiter broth dilution (CLSI M7-A7), Assay 1, Table 12 column D, no serum; conditions: for MIC: Staphylococcus aureus, 2811, Staph aureus 2811, Assay 1, no serum; for MIC, column D: Staph aureus 2811, Assay 1, no serum
# Procedure, shortened: as §1
Compound,MIC [1],MIC [2],MIC [3],MIC [4],MIC [5],"MIC, column A [1]","MIC, column B [2]","MIC, column E [3]","MIC, column C [4]","MIC, column D [5]"
"COc1ccc2ncc(F)c(C(O)CC[C@@H]3CCN(C4CC(c5cc(F)cc(F)c5)C4)C[C@@H]3C(=O)O)c2n1 (stereo partly drawn) [Example 222, (3R,4R)-1-[3-(3,5-difluorophenyl)cyclobutyl]-4-[3-(3-fluoro-6-methoxy-1,5-naphthyridin-4-yl)-3-hydroxypropyl]piperidine-3-carboxylic acid]",0.25 µg/mL,< 0.0625 µg/mL,< 0.0625 µg/mL,2 µg/mL,< 0.0625 µg/mL,,,,,
"COc1ccc2nccc([C@@H](O)CC[C@@H]3CCN(C4CC(c5cccc(C#N)c5)C4)C[C@@H]3C(=O)O)c2c1 (stereo partly drawn) [Example 223, (3R,4R)-1-[3-(3-cyanophenyl)cyclobutyl]-4-[(3S)-3-hydroxy-3-(6-methoxyquinolin-4-yl)propyl]piperidine-3-carboxylic acid]",16 µg/mL,4 µg/mL,8 µg/mL,32 µg/mL,4 µg/mL,,,,,
"COc1ccc2nccc([C@@H](O)CC[C@@H]3CCN(C4CC(c5ccccc5)C4)C[C@@H]3c3nn[nH]n3)c2c1 (stereo partly drawn) [Example 224, (S)-1-(6-methoxyquinolin-4-yl)-3-((3R,4R)-1-(3-phenylcyclobutyl)-3-(2H-tetrazol-5-yl)piperidin-4-yl)propan-1-ol]",2 µg/mL,0.25 µg/mL,0.5 µg/mL,8 µg/mL,0.25 µg/mL,,,,,
COc1ccc2nccc([C@@H](O)CC[C@@H]3CCN(C4CC5c6ccccc6SC54)C[C@@H]3C(=O)O)c2c1 (stereo partly shown) [Example 225],1 µg/mL,0.25 µg/mL,0.5 µg/mL,2 µg/mL,0.25 µg/mL,,,,,
"COc1ccc2nccc([C@@H](O)CC[C@@H]3CCN(C4CC(c5cccc(C#N)c5)C4)C[C@@H]3C(=O)O)c2c1 (stereo partly drawn) [Example 226, (3R,4R)-1-(3-(3-cyanophenyl)cyclobutyl)-4-((S)-3-hydroxy-3-(6-methoxyquinolin-4-yl)propyl)piperidine-3-carboxylic acid]",,,,,,16 µg/mL,4 µg/mL,8 µg/mL,32 µg/mL,4 µg/mL
COc1ccc2ncc(F)c([C@@H](O)CC[C@@H]3CCN(C4CC(=O)N(c5ccccc5)C4)C[C@@H]3C(=O)O)c2c1 (stereo partly shown) [Example 227],8 µg/mL,2 µg/mL,8 µg/mL,64 µg/mL,2 µg/mL,,,,,
"(3R,4R)-1-(1-cyclobutylazetidin-3-yl)-4-[3-hydroxy-3-(6-methoxyquinolin-4-yl)propyl]piperidine-3-carboxylic acid [Example 130]",,,,,,>64 µg/mL,>64 µg/mL,>64 µg/mL,>64 µg/mL,>64 µg/mL
"(3R,4R)-1-[3-(2,5-difluorophenyl)cyclobutyl]-4-[3-(3-fluoro-6-methoxy-1,5-naphthyridin-4-yl)-3-hydroxypropyl]piperidine-3-carboxylic acid [Example 219]",,,,,,0.250 µg/mL,<0.0625 µg/mL,0.125 µg/mL,2.00 µg/mL,<0.0625 µg/mL
